Data: ChEMBL document CHEMBL4699558, “Lead optimization of 8-(methylamino)-2-oxo-1,2-dihydroquinolines as bacterial type II topoisomerase inhibitors” (Bioorg Med Chem, 2020)
≈ marks a conversion by molar mass, not a printed value.

Legend:
Streptococcus anginosus = test: Antibacterial activity against Streptococcus anginosus ATCC 33397 by CLSI method; type: functional
[1] = test system: Prevotella melaninogenica; test: Antibacterial activity against Prevotella melaninogenica JCM6325 by CLSI method; type: functional
Bacteroides fragilis = test: Antibacterial activity against Bacteroides fragilis ATCC 25285 by CLSI method; type: functional
Enterococcus faecalis [2] = test: Antibacterial activity against Enterococcus faecalis ATCC 29212 by CLSI method; type: functional
Enterococcus faecium [3] = test: Antibacterial activity against vancomycin-resistant Enterococcus faecium ATCC 51559 by CLSI method; type: functional
DNA gyrase = DNA gyrase (Escherichia coli, UniProt P0AES4+P0AES6); test: Inhibition of Escherichia coli DNA gyrase by measuring supercoiling activity incubated for 60 mins by fluorescence based assay; type: protein-complex assay
Staphylococcus aureus [4] = test: Antibacterial activity against Staphylococcus aureus ATCC 29213 by CLSI method; type: functional
Enterococcus faecalis [5] = test: Antibacterial activity against vancomycin-resistant Enterococcus faecalis ATCC 51575 by CLSI method; type: functional
Porphyromonas gingivalis = test: Antibacterial activity against Porphyromonas gingivalis JCM8525 by CLSI method; type: functional
Streptococcus pneumoniae [6] = test: Antibacterial activity against Streptococcus pneumoniae ATCC 49619 by CLSI method; type: functional
[7] = Cytotoxicity against human HepG2 cells assessed as reduction in cell viability at 50 uM incubated for 48 hrs by CCK-8 assay
Staphylococcus aureus [8] = test: Antibacterial activity against hospital-acquired Methicillin -resistant Staphylococcus aureus ATCC BAA-811 by CLSI method; type: functional
Escherichia coli [9] = test: Antibacterial activity against Escherichia coli ATCC 25922 in presence of PAbetaN by CLSI method; type: functional
[10] = Cytotoxicity against human HepG2 cells assessed as reduction in cell viability at 10 uM incubated for 48 hrs by CCK-8 assay
Staphylococcus aureus [11] = test: Antibacterial activity against community-acquired Methicillin -resistant Staphylococcus aureus ATCC BAA-1556 by CLSI method; type: functional
[12] = target: DNA topoisomerase 2-alpha (Homo sapiens, UniProt P11388); test: Inhibition of human topoisomerase 2alpha; type: ADME
Escherichia coli [13] = test: Antibacterial activity against Escherichia coli ATCC 25922 by CLSI method; type: functional
Enterococcus faecium [14] = test: Antibacterial activity against Enterococcus faecium ATCC 35667 by CLSI method; type: functional
[15] = test system: Peptostreptococcus anaerobius; test: Antibacterial activity against Peptostreptococcus anaerobius ATCC 27337 by CLSI method; type: functional
Clostridioides difficile = test: Antibacterial activity against Clostridioides difficile ATCC 700057 by CLSI method; type: functional
[16] = Inhibition of Escherichia coli topoisomerase IV by measuring relaxation activity incubated for 30 mins by fluorescence based assay
[17] = target: Voltage-gated inwardly rectifying potassium channel KCNH2 (Homo sapiens, UniProt Q12809); test: Inhibition of human ERG expressed in CHO cells by Q-patch clamp assay
Haemophilus influenzae = test: Antibacterial activity against Haemophilus influenzae ATCC 43095 by CLSI method; type: functional
Fusobacterium nucleatum = test: Antibacterial activity against Fusobacterium nucleatum JCM8532 by CLSI method; type: functional
Streptococcus pneumoniae [18] = test: Antibacterial activity against genotype penicillin-resistant Streptococcus pneumoniae by CLSI method; type: functional
Escherichia coli [19] = test: Antibacterial activity against Escherichia coli ATCC 25922 assessed as reduction in bacterial cell growth incubated for 18 hrs by CSLI based broth microdilution method; type: functional
Staphylococcus aureus [20] = test: Antibacterial activity against Staphylococcus aureus ATCC 29213 assessed as reduction in bacterial cell growth incubated for 18 hrs by CSLI based broth microdilution method; type: functional
Enterococcus = test: Antibacterial activity against Vancomycin-resistant Enterococcus by CLSI method; type: functional
Staphylococcus aureus [21] = test: Antibacterial activity against Methicillin-resistant Staphylococcus aureus by CLSI method; type: functional

Sequence of DNA topoisomerase 2-alpha (P11388 whole entry): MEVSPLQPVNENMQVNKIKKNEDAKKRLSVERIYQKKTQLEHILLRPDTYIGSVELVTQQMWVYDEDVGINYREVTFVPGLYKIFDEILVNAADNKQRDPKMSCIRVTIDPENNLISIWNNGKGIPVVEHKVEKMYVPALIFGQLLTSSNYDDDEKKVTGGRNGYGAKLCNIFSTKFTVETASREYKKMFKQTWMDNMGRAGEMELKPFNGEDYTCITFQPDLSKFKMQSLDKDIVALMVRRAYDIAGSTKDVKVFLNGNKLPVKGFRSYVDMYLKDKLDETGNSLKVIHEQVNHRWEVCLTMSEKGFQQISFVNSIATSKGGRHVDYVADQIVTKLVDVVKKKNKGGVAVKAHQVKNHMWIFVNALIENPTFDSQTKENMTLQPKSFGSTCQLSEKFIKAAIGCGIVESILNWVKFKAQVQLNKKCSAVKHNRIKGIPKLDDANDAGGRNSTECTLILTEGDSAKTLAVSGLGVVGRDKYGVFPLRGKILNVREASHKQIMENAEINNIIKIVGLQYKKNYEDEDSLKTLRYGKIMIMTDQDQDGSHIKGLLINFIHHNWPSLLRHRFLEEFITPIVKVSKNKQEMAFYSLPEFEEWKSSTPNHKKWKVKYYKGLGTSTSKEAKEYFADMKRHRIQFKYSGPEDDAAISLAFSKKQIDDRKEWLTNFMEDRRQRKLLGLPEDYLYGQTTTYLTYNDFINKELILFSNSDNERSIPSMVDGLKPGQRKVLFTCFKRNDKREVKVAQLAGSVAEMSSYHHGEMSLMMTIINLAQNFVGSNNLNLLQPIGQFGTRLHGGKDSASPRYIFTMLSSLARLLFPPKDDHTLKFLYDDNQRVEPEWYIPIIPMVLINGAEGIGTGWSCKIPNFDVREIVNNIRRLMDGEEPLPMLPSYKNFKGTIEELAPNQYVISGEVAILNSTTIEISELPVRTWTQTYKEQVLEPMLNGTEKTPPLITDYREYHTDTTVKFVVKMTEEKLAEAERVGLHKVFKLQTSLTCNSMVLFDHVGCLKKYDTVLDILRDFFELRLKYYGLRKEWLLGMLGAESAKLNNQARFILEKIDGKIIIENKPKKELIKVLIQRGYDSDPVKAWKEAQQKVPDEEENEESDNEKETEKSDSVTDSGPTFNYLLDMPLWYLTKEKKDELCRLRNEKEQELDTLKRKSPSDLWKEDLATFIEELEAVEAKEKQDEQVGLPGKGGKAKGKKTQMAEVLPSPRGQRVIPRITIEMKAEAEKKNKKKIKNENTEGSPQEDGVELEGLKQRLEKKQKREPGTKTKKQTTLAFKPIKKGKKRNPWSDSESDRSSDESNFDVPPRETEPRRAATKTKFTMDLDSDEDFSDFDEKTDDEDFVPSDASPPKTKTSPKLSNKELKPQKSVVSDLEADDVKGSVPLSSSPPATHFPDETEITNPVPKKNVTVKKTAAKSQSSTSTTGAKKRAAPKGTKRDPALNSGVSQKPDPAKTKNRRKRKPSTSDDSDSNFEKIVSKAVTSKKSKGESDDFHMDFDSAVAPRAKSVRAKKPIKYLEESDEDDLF
Sequence of Voltage-gated inwardly rectifying potassium channel KCNH2 (Q12809 whole entry): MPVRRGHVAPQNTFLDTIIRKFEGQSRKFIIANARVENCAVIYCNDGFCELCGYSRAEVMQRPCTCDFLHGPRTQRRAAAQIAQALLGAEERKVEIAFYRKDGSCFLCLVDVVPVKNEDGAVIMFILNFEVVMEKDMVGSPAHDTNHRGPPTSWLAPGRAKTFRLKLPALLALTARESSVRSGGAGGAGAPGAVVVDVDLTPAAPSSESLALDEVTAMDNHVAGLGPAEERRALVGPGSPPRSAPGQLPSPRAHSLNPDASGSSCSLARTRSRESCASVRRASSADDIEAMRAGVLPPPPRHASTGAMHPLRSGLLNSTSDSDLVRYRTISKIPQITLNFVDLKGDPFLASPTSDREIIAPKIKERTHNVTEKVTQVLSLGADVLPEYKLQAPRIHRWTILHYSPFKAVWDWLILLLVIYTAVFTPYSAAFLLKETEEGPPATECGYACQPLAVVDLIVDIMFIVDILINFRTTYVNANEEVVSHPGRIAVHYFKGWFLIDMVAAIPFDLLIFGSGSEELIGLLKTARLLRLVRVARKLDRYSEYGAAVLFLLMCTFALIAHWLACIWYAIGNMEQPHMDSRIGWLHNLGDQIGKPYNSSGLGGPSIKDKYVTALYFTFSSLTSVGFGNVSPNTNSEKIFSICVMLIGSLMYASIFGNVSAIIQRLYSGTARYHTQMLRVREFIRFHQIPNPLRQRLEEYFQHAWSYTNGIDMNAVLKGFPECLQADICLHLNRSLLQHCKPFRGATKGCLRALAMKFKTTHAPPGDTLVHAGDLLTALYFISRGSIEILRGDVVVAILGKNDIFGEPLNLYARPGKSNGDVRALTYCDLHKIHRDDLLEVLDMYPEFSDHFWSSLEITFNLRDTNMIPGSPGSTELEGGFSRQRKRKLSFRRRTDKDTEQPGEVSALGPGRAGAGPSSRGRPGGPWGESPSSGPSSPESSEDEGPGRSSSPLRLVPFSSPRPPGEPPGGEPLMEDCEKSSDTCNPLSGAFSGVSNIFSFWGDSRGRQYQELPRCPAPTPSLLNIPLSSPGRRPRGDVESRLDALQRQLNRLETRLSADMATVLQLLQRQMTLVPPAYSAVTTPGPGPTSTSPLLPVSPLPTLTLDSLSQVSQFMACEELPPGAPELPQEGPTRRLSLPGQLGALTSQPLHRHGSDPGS

| SMILES | MIC (Streptococcus anginosus) [µg/mL] | MIC (Enterococcus faecalis [2]) [µg/mL] | MIC (Enterococcus faecium [3]) [µg/mL] | IC50 (DNA gyrase) [nM] | MIC (Staphylococcus aureus [4]) [µg/mL] | MIC (Enterococcus faecalis [5]) [µg/mL] | MIC (Streptococcus pneumoniae [6]) [µg/mL] | MIC (Staphylococcus aureus [8]) [µg/mL] | MIC (Escherichia coli [9]) [µg/mL] | MIC (Staphylococcus aureus [11]) [µg/mL] | MIC (Escherichia coli [13]) [µg/mL] | MIC (Enterococcus faecium [14]) [µg/mL] | IC50 [16] [nM] | MIC (Haemophilus influenzae) [µg/mL] | further results |
| --- | --- | --- | --- | --- | --- | --- | --- | --- | --- | --- | --- | --- | --- | --- | --- |
| CNc1cc(F)cc2cc(C(=O)Nc3ccc(CO)cc3CN(CCO)C3CCCCC3)c(=O)[nH]c12 | 0.06 (≈ 0.121 µM) | 0.03 (≈ 0.0604 µM) | 0.25 (≈ 0.503 µM) | 1.6 | 1 (≈ 2.01 µM) | 0.015 (≈ 0.0302 µM) | 0.06 (≈ 0.121 µM) | 1 (≈ 2.01 µM) | ≤ 0.03 | 2 (≈ 4.03 µM) | – | – | – | – | MIC [1]: > 32 µg/mL; MIC (Bacteroides fragilis): > 32 µg/mL; MIC (Porphyromonas gingivalis): 4 µg/mL (≈ 8.06 µM); cytotoxicity at 48 h, 50 µM ([7]; hepg2): 98.5%; cytotoxicity at 48 h, 10 µM ([10]; hepg2): -15.3%; IC50 [12]: > 100000 nM |
| CNc1cc(F)cc2cc(C(=O)Nc3ccc(C(=O)O)cc3CN(CCO)C3CCCCC3)c(=O)[nH]c12.Cl | 0.008 | 0.008 | 0.015 | 0.29 | 0.5 | 0.008 | 0.015 | 1 | ≤ 0.03 | 1 | 4 | 0.015 | 23.4 | 0.06 | MIC [1]: > 32 µg/mL; MIC (Bacteroides fragilis): > 32 µg/mL; MIC [15]: 0.12 µg/mL; MIC (Clostridioides difficile): 1 µg/mL; IC50 [17]: > 30000 nM; MIC (Porphyromonas gingivalis): 0.12 µg/mL; cytotoxicity at 48 h, 50 µM ([7]; HepG2 cells): 7.76%; MIC (Fusobacterium nucleatum): 0.12 µg/mL; cytotoxicity at 48 h, 10 µM ([10]; HepG2 cells): -2.04%; IC50 [12]: > 100000 nM |
| CC[C@H]1OC(=O)[C@H](C)[C@@H](O[C@H]2C[C@@](C)(OC)[C@@H](O)[C@H](C)O2)[C@H](C)[C@@H](O[C@@H]2O[C@H](C)C[C@H](N(C)C)[C@H]2O)[C@](C)(O)C[C@@H](C)CN(C)[C@H](C)[C@@H](O)[C@]1(C)O [AZITHROMYCIN] | – | – | – | – | – | – | – | – | – | – | – | – | – | – | MIC50 (Streptococcus pneumoniae [18]): > 128 µg/mL; MIC90 (Streptococcus pneumoniae [18]): > 128 µg/mL |
| CNc1cc(F)cc2cc(C(=O)Nc3ccc(C(=O)O)cc3CN3CCCCC3)c(=O)[nH]c12 | 0.03 (≈ 0.0663 µM) | 0.015 (≈ 0.0332 µM) | 0.015 (≈ 0.0332 µM) | 0.31 | 4 (≈ 8.84 µM) | 0.015 (≈ 0.0332 µM) | 0.03 (≈ 0.0663 µM) | 4 (≈ 8.84 µM) | ≤ 0.03 | 4 (≈ 8.84 µM) | 8 (≈ 17.7 µM) | 0.03 (≈ 0.0663 µM) | 15.3 | 0.06 (≈ 0.133 µM) | – |
| CNc1cc(F)cc2cc(C(=O)Nc3ccc(C(=O)NS(=O)(=O)N(C)C)cc3)c(=O)[nH]c12 | 0.12 (≈ 0.26 µM) | 0.03 (≈ 0.065 µM) | – | 0.43 | – | – | 0.06 (≈ 0.13 µM) | – | ≤ 0.015 | – | 16 (≈ 34.7 µM) | 0.06 (≈ 0.13 µM) | 51.9 | 0.06 (≈ 0.13 µM) | – |
| CNc1cc(F)cc2cc(C(=O)Nc3ccc(C(=O)O)cc3CN(C)C3CCCCC3)c(=O)[nH]c12.Cl | – | – | – | 0.53 | 2 | – | – | – | ≤ 0.03 | – | 8 | – | 47.4 | – | – |
| CO[C@@H]1[C@@H](OC(N)=O)[C@@H](O)[C@H](Oc2ccc3c(O)c(NC(=O)c4ccc(O)c(CC=C(C)C)c4)c(=O)oc3c2C)OC1(C)C [NOVOBIOCIN] | – | – | – | – | – | – | – | – | – | – | – | – | – | – | MIC (Escherichia coli [19]): 64 µg/mL (≈ 104 µM); MIC (Staphylococcus aureus [20]): 0.13 µg/mL (≈ 0.212 µM) |
| CCCCCN(C)Cc1cc(C(=O)O)ccc1NC(=O)c1cc2cc(F)cc(NC)c2[nH]c1=O | – | – | – | 0.21 | 0.5 (≈ 1.07 µM) | – | – | – | ≤ 0.03 | – | 4 (≈ 8.54 µM) | – | 41.4 | – | – |
| CNc1cc(F)cc2cc(C(=O)Nc3ccc(C(=O)O)cc3CN(CC(=O)O)C3CCCCC3)c(=O)[nH]c12 | – | – | – | 0.57 | 32 (≈ 61 µM) | – | – | – | 0.12 | – | > 64 | – | 76.3 | – | – |
| CCCCCN(CCCCC)Cc1cc(C(=O)O)ccc1NC(=O)c1cc2cc(F)cc(NC)c2[nH]c1=O | – | 0.015 (≈ 0.0286 µM) | – | 0.8 | 0.06 (≈ 0.114 µM) | 0.015 (≈ 0.0286 µM) | 0.015 (≈ 0.0286 µM) | 0.5 (≈ 0.953 µM) | ≤ 0.03 | 0.5 (≈ 0.953 µM) | – | 0.06 (≈ 0.114 µM) | – | 0.25 (≈ 0.477 µM) | MIC (Bacteroides fragilis): > 32 µg/mL; MIC [15]: 0.12 µg/mL (≈ 0.229 µM); MIC (Porphyromonas gingivalis): 0.12 µg/mL (≈ 0.229 µM); cytotoxicity at 48 h, 50 µM ([7]; hepg2): 46.7%; MIC (Fusobacterium nucleatum): 1 µg/mL (≈ 1.91 µM); cytotoxicity at 48 h, 10 µM ([10]; hepg2): 8.11%; IC50 [12]: > 100000 nM |
| CN(C)c1cc(NC(=O)CNC(C)(C)C)c(O)c2c1C[C@H]1C[C@H]3[C@H](N(C)C)C(O)=C(C(N)=O)C(=O)[C@@]3(O)C(O)=C1C2=O [TIGECYCLINE] | 0.06 (≈ 0.102 µM) | 0.12 (≈ 0.205 µM) | 0.12 (≈ 0.205 µM) | – | 0.25 (≈ 0.427 µM) | 0.25 (≈ 0.427 µM) | 0.06 (≈ 0.102 µM) | 0.25 (≈ 0.427 µM) | – | 0.5 (≈ 0.854 µM) | 0.25 (≈ 0.427 µM) | 0.06 (≈ 0.102 µM) | – | – | MIC50 (Enterococcus): 0.25 µg/mL (≈ 0.427 µM); MIC90 (Enterococcus): 0.5 µg/mL (≈ 0.854 µM); MIC (Staphylococcus aureus [21]): 0.25 µg/mL (≈ 0.427 µM); MIC50 (Staphylococcus aureus [21]): 0.25 µg/mL (≈ 0.427 µM); MIC90 (Staphylococcus aureus [21]): 2 µg/mL (≈ 3.41 µM) |
